The test system of one experiment is P388/ADR leukemia. In words: NCI tumour cell line growth inhibition, 48 h.
In a further experiment the test system is P388 leukemia. Kind of experiment: NCI tumour cell line growth inhibition, 48 h.

“And” between values parts separate entries of the source, which are not always exact repeats. Identical values can stand only once.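 Method: 48-hour compound exposure of cells in 96-well plates, five concentrations, linear interpolation of endpoints. At the GI50, growth is halved. TGI marks complete inhibition of growth.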

Turning to `C[C@@](O)(/C=C/[C@H]1CC=CC(=O)O1)[C@@H](C[C@@H](O)\C=C/C=C\C=C\CO)OP(=O)(O)O`, the GI50 in the experiment on P388/ADR leukemia was 963 nM and 989 nM; in the experiment with P388 leukemia, 1410 nM and 567 nM.
Regarding `O=C1N[C@H]2[C@H](O)[C@H](O)[C@@H](O)[C@H](O)[C@@H]2c2cc3c(c(O)c21)OCO3`, the TGI came out at 210 nM in the experiment on P388/ADR leukemia and 164 nM in the experiment with P388 leukemia.

For the origin of these results see PubChem BioAssay (NCI).
